Results on one molecule are retold here after patent publication US20020122768A1, “Stable radiopharmaceutical compositions and methods for preparation thereof” (priority 2000, published 2002).

Common to all, as to assay type: physicochemical
Series [1] in a line: Solution stability of ^177Lu-C at −78° C., RCP by radio-HPLC. The following applies: ^177Lu-C prepared using 2 mg GA. How it is done:
(§1) The integrity of a radiopharmaceutical is measured by the radiochemical purity (RCP) of the radiolabeled compound using ITLC or more preferably HPLC. The advantage of using HPLC is that radio-impurities caused by radiolytic degradation can be separated from the radiopharmaceutical under optimized chromatographic conditions. […] The radiopharmaceutical compositions of this invention are effective in maintaining the long-term stability of samples that have been frozen, thawed, and re-tested periodically for 7 days.
(§2) The initial RCP of a radiopharmaceutical is largely dependent on radiolabeling conditions such as pH, heating temperature and time. Once a radiopharmaceutical is prepared in high yield, the stability of the radiopharmaceutical composition is measured by the` RCP change of the radiopharmaceutical over a certain period of time. For comparison purposes, sodium gentisate or sodium ascorbate was often used as the reference since they have been used in various radiopharmaceutical formulations.
HPLC method 3 used a HP-1100 HPLC system with a UV/visible detector (λ=220 nm), an IN-US radio-detector, and a Zorbax C18 column (4.6 mm×250 mm, 80 Å pore size). The flow rate was 1 mL/min with a gradient mobile phase starting from 90% solvent A (0.025 M ammonium acetate buffer, pH 6.8) and 10% solvent B (acetonitrile) at 0 min to 88% solvent A and 12% solvent B at 18 min, followed by an isocratic wash using 40% of solvent A and 60% solvent B from 19 to 25 min.
The ITLC method used Gelman Sciences silica-gel ITLC paper strips and 1:1 mixture of acetone and saline as eluant. By this method, the radiolabeled compounds migrate to the solvent front while [^90Y]/^177Lu]colloid and [^90Y]/^177Lu]acetate remain at the origin.
(§3) The 0.5 M ammonium acetate buffer (pH 8.0) was first degassed under vacuum for 1-2 min. COMPOUND C and gentisic acid (sodium salt, GA) were dissolved in the degassed buffer to give a concentration of 100 μg/mL for COMPOUND C and 2 mg/mL for GA. The resulting solution was immediately degassed under vacuum for another 1-2 min. To a clean sealed 5 mL vial was added 1.0 mL of the degassed 0.5 M ammonium acetate buffer (pH 8.0) containing 100 μg COMPOUND C and 2 mg GA. The solution was degassed again under vacuum. Upon addition of ˜20 μL of ^177LuCl3 solution (˜20 mCi) in 0.05 N HCl, the reaction mixture was heated at 100° C. for 5 min. After cooling to room temperature, a sample of the resulting solution was analyzed by HPLC (Method 3, injection volume=5 μL) and ITLC. […] To the solution above was added 0.5 mL of sodium ascorbate solution (40 mg/mL in 0.5 M ammonium acetate buffer, pH=7.4). The resulting mixture was then kept in a dry-ice box (−78° C.) for 7 days. Samples were analyzed at t=0, 3 and 7 days.
as §3, with “COMPOUND” for “The 0.5 M ammonium acetate buffer (pH 8.0) was first degassed under vacuum for 1-2 min. COMPOUND”, “1.0 μL” for “1.0 mL”, “of 2,3,4-THBA” for “of sodium ascorbate”, “solution (20” for “solution (40”
COMPOUND C and gentisic acid (sodium salt, GA) were dissolved in the degassed buffer to give a concentration of 100 μg/mL for COMPOUND C and 2 mg/mL for GA. The resulting solution was immediately degassed under vacuum for another 1-2 min. […]

Assay in series [2]: as above
The note with it: ^177Lu-C prepared using 2 mg GA, degassed, second stabilizer (20 mg AA, 20 mg DSA, 10 mg 2,3,4-THBA, 10 mg 3,4,5-THBA) added post-labeling.

The nature of series [3]: Solution stability of ^90Y-B at −78° C., RCP by radio-HPLC. The following applies: ^90Y-B prepared with GA. The protocol:
as §1, §2
HPLC method 2 used a HP-1100 HPLC system with a UV/visible detector (λ=220 nm), an IN-US radio-detector, and a Zorbax C18 column (4.6 mm×250 mm, 80 Å pore size). The flow rate was 1 mL/min with a gradient mobile phase starting from 92% solvent A (0.025 M ammonium acetate buffer, pH 6.8) and 8% solvent B (acetonitrile) at 0 min to 90% solvent A and 10% solvent B at 18 min, followed by an isocratic wash using 40% of solvent A and 60% solvent B from 19 to 25 min.
The ITLC method used Gelman Sciences silica-gel ITLC paper strips and 1:1 mixture of acetone and saline as eluant. By this method, the radiolabeled compounds migrate to the solvent front while [^90Y]/^177Lu]colloid and [^90Y]/^177Lu]acetate remain at the origin. […]
The 0.5 M ammonium acetate buffer (pH 8.0) was first degassed under vacuum for 1-2 min. COMPOUND B and gentisic acid (sodium salt, GA) were dissolved in the degassed buffer to give a concentration of 100 μg/mL for COMPOUND B and 20 mg/mL for GA. The resulting solution was immediately degassed under vacuum for another 1-2 min. To a clean sealed 5 mL vial was added 1.0 mL of the degassed 0.5 M ammonium acetate buffer (pH 8.0) containing 100 μg COMPOUND B and 10 mg GA. The solution was degassed again under vacuum. Upon addition of ˜20 μL of ^90YCl3 solution (˜20 mCi) in 0.05 N HCl, the reaction mixture was heated at 100° C. for 5 min. After cooling to room temperature, a sample of the resulting solution was diluted 20-fold with saline containing gentisate (10 mg/mL), and was then analyzed by HPLC (Method 2, injection volume=1-2 μL) and ITLC. […] To the solution above was added 0.5 mL of sodium ascorbate solution (40 mg/mL in 0.5 M ammonium acetate buffer, pH=7.4). The resulting mixture was then kept in a dry-ice box (−78° C.) for 7 days. Samples were analyzed at t=0, 3 and 7 days.
The 0.5 M ammonium acetate buffer (pH 8.0) was first degassed under vacuum for 1-2 min. COMPOUND B and gentisic acid (sodium salt, GA) were dissolved in the degassed buffer to give a concentration of 100 μg/mL for COMPOUND B and 20 mg/mL for GA. The resulting solution was immediately degassed under vacuum for another 1-2 min. To a clean sealed 5 mL vial was added 1.0 mL of the degassed 0.5 M ammonium acetate buffer (pH 8.0) containing 100 μg COMPOUND B and 10 mg GA. The solution was degassed again under vacuum. Upon addition of ˜20 μL of ^90YCl3 solution (˜20 mCi) in 0.05 N HCl, the reaction mixture was heated at 100° C. for 5 min. After cooling to room temperature, a sample of the resulting solution was diluted 20-fold with saline containing gentisate (10 mg/mL), and was then analyzed by HPLC (Method 2, injection volume=1-2 μL) and ITLC. […] To the solution above was added 0.5 mL of 2,3,4-trihydroxybenzoic acid solution (20 mg/mL in 0.5 M ammonium acetate buffer, pH=6.5). The resulting mixture was then kept in a dry-ice box (−78° C.) for 7 days. Samples were analyzed at t=0, 3 and 7 days. […]

Setting [4] is: degassed, second stabilizer (20 mg AA, 20 mg DSA, 10 mg 2,3,4-THBA, 10 mg 3,4,5-THBA) added post-labeling.
[5] abbreviates: second stabilizer added post-labeling, t = 0 to 7 days.
The mark [6] stands for this setting: degassed, second stabilizer (20 mg AA, 20 mg DSA, 10 mg 2,3,4-THBA, 10 mg HABA) added post-labeling.

In the case of `O=C1O[C@H]([C@@H](O)CO)C([O-])=C1O.[Na+]` [AA, sodium ascorbate, reference compound], in series [1] (setting [4]), the “RCP (%) t = 0” value turned out to be 97.6%, the “RCP (%) t = 3 days” value worked out at 97.5% and the “RCP (%) t = 7 days” value was determined as 93.0%. Also, the “RCP (%) change” value in series [1] (setting [5]) is given as 4.6%. The “RCP (%) t = 1 day” value in series [2] is 97.7%. Moreover, in series [3] (setting [6]), the “RCP (%) t = 0” value was found to be 95.0%, the “RCP (%) t = 3 days” value was 93.9% and the “RCP (%) t = 7 days” value is reported as 94.5%. Moreover, the “RCP (%) change” value in series [3] (setting [5]) was 0.5%.
